Source: patent US5110904A (Abbott Laboratories, priority 1990, dated 1992)
Non-standard residues stand in square brackets, D forms with d. Residues, ends and D or L forms follow the SMILES beside them. *: point of attachment. dNMe1Nal = CN[C@H](Cc1cccc2ccccc12)C(=O)O; dPhe(4-Cl) = N[C@H](Cc1ccc(Cl)cc1)C(=O)O; 1Nal = N[C@@H](Cc1cccc2ccccc12)C(=O)O; d1Nal = N[C@H](Cc1cccc2ccccc12)C(=O)O; d2Nal = N[C@H](Cc1ccc2ccccc2c1)C(=O)O; Lys(iPr) = CC(C)NCCCC[C@H](N)C(=O)O; NMeY = CN[C@@H](Cc1ccc(O)cc1)C(=O)O; dBta = N[C@H](Cc1csc2ccccc12)C(=O)O; NMeF = CN[C@@H](Cc1ccccc1)C(=O)O; d3Pal = N[C@H](Cc1cccnc1)C(=O)O; Cha = N[C@@H](CC1CCCCC1)C(=O)O; d2Thi = N[C@H](Cc1cccs1)C(=O)O; NMeL = CN[C@@H](CC(C)C)C(=O)O; pGlu = O=C1CC[C@@H](C(=O)O)N1; Nicotinoyl = O=C(c1cccnc1)*; NMeS = CN[C@@H](CO)C(=O)O; Sar = CNCC(=O)O; For = O=C*

Biological target: T1, LHRH receptors (Rattus norvegicus, UniProt P30969)
T1 sequence (P30969 1-327): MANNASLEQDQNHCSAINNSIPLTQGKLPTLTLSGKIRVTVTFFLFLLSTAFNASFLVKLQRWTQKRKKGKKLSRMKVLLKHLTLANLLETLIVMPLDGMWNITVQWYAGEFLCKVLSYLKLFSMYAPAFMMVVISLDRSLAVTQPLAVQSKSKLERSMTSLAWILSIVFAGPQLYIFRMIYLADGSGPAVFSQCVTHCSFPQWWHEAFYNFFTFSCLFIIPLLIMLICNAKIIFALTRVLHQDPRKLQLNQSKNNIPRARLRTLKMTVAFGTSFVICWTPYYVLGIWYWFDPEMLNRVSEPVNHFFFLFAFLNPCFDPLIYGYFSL
Experiment: Radioligand receptor binding assay, rat pituitary membranes
Details: radioiodinated [D-Leu6-des Gly10]-LHRH ethyl amide 50 pM, 2 hours at 4° C., read-out: Receptor Binding pkI (converted)
Description: The radioligand (50 pM), receptors, and compounds to be tested are coincubated for 2 hours at 4° C. Bound ligand is separated from free ligand via centrifugation and aspiration.

| Ki | Structure (SMILES) |
| --- | --- |
| 1.17 nM | CCNC(=O)[C@@H]1CCCN1C(=O)[C@H](CCCN=C(N)N)NC(=O)[C@H](CC(C)C)NC(=O)[C@@H](CC(C)C)NC(=O)[C@H](Cc1ccc(O)cc1)NC(=O)[C@H](CO)N(C)C(=O)[C@H](Cc1c[nH]c2ccccc12)NC(=O)[C@H](Cc1c[nH]cn1)NC(=O)[C@@H]1CCC(=O)N1 [Ex. 1, (pyro)Glu-His-Trp-N-Me-Ser-Tyr-D-Leu-Leu-Arg-Pro-NHEt] ([pGlu]HW[NMeS]Y[dL]LRP-NHEt) |
| 0.038 nM | CCNC(=O)[C@@H]1CCCN1C(=O)[C@H](CCCN=C(N)N)NC(=O)[C@H](CC(C)C)NC(=O)[C@@H](Cc1c[nH]c2ccccc12)NC(=O)[C@H](Cc1ccc(O)cc1)NC(=O)[C@H](CO)NC(=O)[C@H](Cc1c[nH]c2ccccc12)NC(=O)[C@H](Cc1ccccc1)N(C)C(=O)[C@@H]1CCC(=O)N1 [Ex. 19, (pyro)Glu-N-Me-Phe-Trp-Ser-Tyr-D-Trp-Leu-Arg-ProNHEt] ([pGlu][NMeF]WSY[dW]LRP-NHEt) |
| 0.0562 nM | CCNC(=O)[C@@H]1CCCN1C(=O)[C@H](CCCN=C(N)N)N(C)C(=O)[C@H](CC(C)C)NC(=O)[C@@H](Cc1c[nH]c2ccccc12)NC(=O)[C@H](Cc1ccc(O)cc1)NC(=O)[C@H](CO)NC(=O)[C@H](Cc1c[nH]c2ccccc12)NC(=O)[C@H](Cc1cnc[nH]1)NC(=O)[C@@H]1CCC(=O)N1 [Ex. 23, (pyro)Glu-His-Trp-Ser-Tyr-D-Trp-Leu-N-Me-Arg-ProNHEt] |
| 0.0355 nM | CC(=O)N[C@H](Cc1ccc(Cl)cc1)C(=O)N[C@H](Cc1ccc(Cl)cc1)C(=O)N[C@H](Cc1cccs1)C(=O)N[C@@H](CO)C(=O)N(C)[C@@H](Cc1ccc(O)cc1)C(=O)N[C@H](CCCCN)C(=O)N[C@@H](CC(C)C)C(=O)N[C@@H](CCCNC(=N)N)C(=O)N1CCC[C@H]1C(=O)N[C@H](C)C(N)=O [Ex. 39, N-Ac-D-4-Cl-Phe-D-4-Cl-Phe-D-2-Thia-Ser-N-Me-Tyr-D-Lys-Leu-Arg-Pro-D-AlaNH2] (Ac-[dPhe(4-Cl)][dPhe(4-Cl)][d2Thi]S[NMeY][dK]LRP[dA]-NH2) |
| 0.603 nM | CC(=O)NCC(=O)N[C@H](Cc1ccc(Cl)cc1)C(=O)N[C@H](Cc1cccnc1)C(=O)N[C@@H](CO)C(=O)N(C)[C@@H](Cc1ccc(O)cc1)C(=O)N[C@H](CCCCNC(=O)c1cccnc1)C(=O)N[C@@H](CC(C)C)C(=O)N[C@@H](CCCCNC(C)C)C(=O)N1CCC[C@H]1C(=O)N[C@H](C)C(N)=O [Ex. 42, N-Ac-Gly-D-4-Cl-Phe-D-3-Pal-Ser-N-Me-Tyr-D-Lys-(N-epsilon-nicotinyl)-Leu-Lys(N-epsilon-isopropyl)-Pro-D-AlaNH2] (Ac-G[dPhe(4-Cl)][d3Pal]S[NMeY][dK](Nicotinoyl)L[Lys(iPr)]P[dA]-NH2) |
| 0.0138 nM | CC(=O)N[C@H](Cc1ccc(Cl)cc1)C(=O)N[C@H](Cc1ccc(Cl)cc1)C(=O)N[C@H](Cc1cccs1)C(=O)N[C@@H](CO)C(=O)N(C)[C@@H](Cc1ccc(O)cc1)C(=O)N[C@H](CCCCN)C(=O)N(C)[C@@H](CC(C)C)C(=O)N[C@@H](CCCNC(=N)N)C(=O)N1CCC[C@H]1C(=O)N[C@H](C)C(N)=O [Ex. 45, N-Ac-D-4-Cl-Phe-D-4-Cl-Phe-D-2-Thia-Ser-N-Me-Tyr-D-Lys-N-Me-Leu-Arg-Pro-D-AlaNH4] (Ac-[dPhe(4-Cl)][dPhe(4-Cl)][d2Thi]S[NMeY][dK][NMeL]RP[dA]-NH2) |
| 0.038 nM | CC(=O)N[C@H](Cc1ccc(Cl)cc1)C(=O)N[C@H](Cc1ccc(Cl)cc1)C(=O)N[C@H](Cc1cccc2ccccc12)C(=O)N[C@@H](CO)C(=O)N(C)[C@@H](Cc1ccc(O)cc1)C(=O)N[C@H](CCCCN)C(=O)N[C@@H](CC1CCCCC1)C(=O)N[C@@H](CCCNC(=N)N)C(=O)N1CCC[C@H]1C(=O)N[C@H](C)C(N)=O [Ex. 47, N-Ac-D-4-Cl-Phe-D-4-Cl-Phe-D-1-Nal-Ser-N-Me-Tyr-D-Lys-Cha-Arg-Pro-D-AlaNH2] (Ac-[dPhe(4-Cl)][dPhe(4-Cl)][d1Nal]S[NMeY][dK][Cha]RP[dA]-NH2) |
| 0.01 nM | CC(=O)N(C)CC(=O)N[C@H](Cc1ccc(Cl)cc1)C(=O)N[C@H](Cc1cccc2ccccc12)C(=O)N[C@@H](CO)C(=O)N(C)[C@@H](Cc1ccc(O)cc1)C(=O)N[C@H](CCCCN)C(=O)N[C@@H](CC(C)C)C(=O)N[C@@H](CCCNC(=N)N)C(=O)N1CCC[C@H]1C(=O)N[C@H](C)C(N)=O [Ex. 48, N-Ac-Sar-D-4-Cl-Phe-D-1-Nal-Ser-N-Me-Tyr-D-Lys-Leu-Arg-Pro-D-AlaNH2] (Ac-[Sar][dPhe(4-Cl)][d1Nal]S[NMeY][dK]LRP[dA]-NH2) |
| 0.0316 nM | CC(=O)N(C)CC(=O)N[C@H](Cc1ccc(Cl)cc1)C(=O)N[C@H](Cc1cccs1)C(=O)N[C@@H](CO)C(=O)N(C)[C@@H](Cc1ccc(O)cc1)C(=O)N[C@H](CCCCN)C(=O)N[C@@H](CC(C)C)C(=O)N[C@@H](CCCNC(=N)N)C(=O)N1CCC[C@H]1C(=O)N[C@H](C)C(N)=O [Ex. 49, N-Ac-Sar-D-4-Cl-Phe-D-2-Thia-Ser-N-Me-Tyr-D-Lys-Leu-Arg-Pro-D-AlaNH2] (Ac-[Sar][dPhe(4-Cl)][d2Thi]S[NMeY][dK]LRP[dA]-NH2) |
| 0.0138 nM | CC(=O)N(C)CC(=O)N[C@H](Cc1ccc(Cl)cc1)C(=O)N[C@H](Cc1cccc2ccccc12)C(=O)N[C@@H](CO)C(=O)N(C)[C@@H](Cc1ccc(O)cc1)C(=O)N[C@H](Cc1cccnc1)C(=O)N[C@@H](CC(C)C)C(=O)N[C@@H](CCCNC(=N)N)C(=O)N1CCC[C@H]1C(=O)N[C@H](C)C(N)=O [Ex. 50, N-Ac-Sar-D-4-Cl-Phe-D-1-Nal-Ser-N-Me-Tyr-D-3-Pal-Leu-Arg-Pro-D-AlaNH4] (Ac-[Sar][dPhe(4-Cl)][d1Nal]S[NMeY][d3Pal]LRP[dA]-NH2) |
| 0.0269 nM | CC(=O)N(C)CC(=O)N[C@H](Cc1ccc(Cl)cc1)C(=O)N[C@H](Cc1cccc2ccccc12)C(=O)N[C@@H](CO)C(=O)N(C)[C@@H](Cc1ccc(O)cc1)C(=O)N[C@H](CCCCNC(=O)c1cccnc1)C(=O)N[C@@H](CC(C)C)C(=O)N[C@@H](CCCNC(=N)N)C(=O)N1CCC[C@H]1C(=O)N[C@H](C)C(N)=O [Ex. 51, N-Ac-Sar-D-4-Cl-Phe-D-1-Nal-Ser-N-Me-Tyr-D-Tys(N-epsilon-nicotinyl)-Leu-Arg-Pro-D-AlaNH2] (Ac-[Sar][dPhe(4-Cl)][d1Nal]S[NMeY][dK](Nicotinoyl)LRP[dA]-NH2) |
| 0.017 nM | CC(=O)N(C)CC(=O)N[C@H](Cc1ccc(Cl)cc1)C(=O)N[C@@H](Cc1cccc2ccccc12)C(=O)N[C@@H](CO)C(=O)N(C)[C@@H](Cc1ccc(O)cc1)C(=O)N[C@H](CCCCN)C(=O)N[C@@H](CC(C)C)C(=O)N[C@@H](CCCNC(=N)N)C(=O)N1CCC[C@H]1C(=O)N[C@H](C)C(N)=O [Ex. 52, N-Ac-Sar-D-4-Cl-Phe-1-Nal-Ser-N-Me-Tyr-D-Lys-Leu-Arg-Pro-D-AlaNH4] (Ac-[Sar][dPhe(4-Cl)][1Nal]S[NMeY][dK]LRP[dA]-NH2) |
| 0.0132 nM | CC(=O)NCC(=O)N[C@H](Cc1ccc(Cl)cc1)C(=O)N[C@H](Cc1cccc2ccccc12)C(=O)N[C@@H](CO)C(=O)N(C)[C@@H](Cc1ccc(O)cc1)C(=O)N[C@H](CCCCN)C(=O)N[C@@H](CC(C)C)C(=O)N[C@@H](CCCNC(=N)N)C(=O)N1CCC[C@H]1C(=O)N[C@H](C)C(N)=O [Ex. 53, N-Ac-Gly-D-4-Cl-Phe-D-1-Nal-Ser-N-Me-Tyr-D-Lys-Leu-Arg-Pro-D-AlaNH2] (Ac-G[dPhe(4-Cl)][d1Nal]S[NMeY][dK]LRP[dA]-NH2) |
| 0.0339 nM | CC(=O)N[C@H](Cc1ccc(Cl)cc1)C(=O)N[C@H](Cc1ccc(Cl)cc1)C(=O)N[C@H](Cc1csc2ccccc12)C(=O)N[C@@H](CO)C(=O)N(C)[C@@H](Cc1ccc(O)cc1)C(=O)N[C@H](CCCCN)C(=O)N[C@@H](CC(C)C)C(=O)N[C@@H](CCCN=C(N)N)C(=O)N1CCC[C@H]1C(=O)N[C@H](C)C(N)=O [Ex. 54, N-Ac-D-4-Cl-Phe-D-4-Cl-Phe-D-3-Bal-Ser-N-Me-Tyr-D-Lys-Leu-Arg-Pro-D-AlaNH2] (Ac-[dPhe(4-Cl)][dPhe(4-Cl)][dBta]S[NMeY][dK]LRP[dA]-NH2) |
| 0.0219 nM | CC(=O)N[C@H](Cc1ccc(Cl)cc1)C(=O)N[C@H](Cc1ccc(Cl)cc1)C(=O)N[C@H](Cc1cn(C=O)c2ccccc12)C(=O)N[C@@H](CO)C(=O)N(C)[C@@H](Cc1ccc(O)cc1)C(=O)N[C@H](CCCCN)C(=O)N[C@@H](CC(C)C)C(=O)N[C@@H](CCCNC(=N)N)C(=O)N1CCC[C@H]1C(=O)N[C@H](C)C(N)=O [Ex. 55, N-Ac-D-4-Cl-Phe-D-4-Cl-Phe-D-Trp(formyl)-Ser-N-Me-Tyr-D-Lys-Leu-Arg-Pro-D-AlaNH2] (Ac-[dPhe(4-Cl)][dPhe(4-Cl)][dW](For)S[NMeY][dK]LRP[dA]-NH2) |
| 0.676 nM | CC(=O)N[C@H](Cc1ccc(Cl)cc1)C(=O)N[C@H](Cc1ccc(Cl)cc1)C(=O)N(C)[C@H](Cc1cccc2ccccc12)C(=O)N[C@@H](CO)C(=O)N(C)[C@@H](Cc1ccc(O)cc1)C(=O)N[C@H](CCCCN)C(=O)N[C@@H](CC(C)C)C(=O)N[C@@H](CCCNC(=N)N)C(=O)N1CCC[C@H]1C(=O)N[C@H](C)C(N)=O [Ex. 56, N-Ac-D-4-Cl-Phe-D-4-Cl-Phe-N-Me-D-1-Nal-Ser-N-Me-Tyr-D-Lys-Leu-Arg-Pro-D-AlaNH2] (Ac-[dPhe(4-Cl)][dPhe(4-Cl)][dNMe1Nal]S[NMeY][dK]LRP[dA]-NH2) |
| 0.372 nM | CC(=O)N[C@H](Cc1ccc(Cl)cc1)C(=O)N[C@H](Cc1ccc(Cl)cc1)C(=O)N[C@H](Cc1ccc2ccccc2c1)C(=O)N[C@@H](CO)C(=O)N(C)[C@@H](Cc1ccc(O)cc1)C(=O)N[C@H](CCCCNC(=O)c1cccnc1)C(=O)N(C)[C@@H](CC(C)C)C(=O)N[C@@H](CCCNC(=N)N)C(=O)N1CCC[C@H]1C(=O)N[C@H](C)C(N)=O [Ex. 57, N-Ac-D-4-Cl-Phe-D-4-Cl-Phe-D-2-Nal-Ser-N-Me-Tyr-D-Lys(N-epsilon-nicotinyl)- N-Me-Leu-Arg-Pro-D-AlaNH2] (Ac-[dPhe(4-Cl)][dPhe(4-Cl)][d2Nal]S[NMeY][dK](Nicotinoyl)[NMeL]RP[dA]-NH2) |
